Assays:
Type in all cases: functional
SF-268 = assay: Cytotoxicity against human SF268 cells assessed as cellular growth at 10 uM by SRB assay
MOLT-4 = assay: Cytotoxicity against human MOLT4 cells assessed as cellular growth at 10 uM by SRB assay
SR = assay: Cytotoxicity against human SR cells assessed as cellular growth at 10 uM by SRB assay
HCC 2998 = assay: Cytotoxicity against human HCC2998 cells assessed as cellular growth at 10 uM by SRB assay
HT-29 = assay: Cytotoxicity against human HT-29 cells assessed as cellular growth at 10 uM by SRB assay
MDA-MB-231 = assay: Cytotoxicity against human MDA-MB-231 cells assessed as cellular growth at 10 uM by SRB assay
Malme-3M = assay: Cytotoxicity against human MALME-3M cells assessed as cellular growth at 10 uM by SRB assay
A498 = assay: Cytotoxicity against human A498 cells assessed as cellular growth at 10 uM by SRB assay
K562 = assay: Cytotoxicity against human K562 cells assessed as cellular growth at 10 uM by SRB assay
ACHN = assay: Cytotoxicity against human ACHN cells assessed as cellular growth at 10 uM by SRB assay
OVCAR-3 = assay: Cytotoxicity against human OVCAR3 cells assessed as cellular growth at 10 uM by SRB assay
SK-MEL-28 = assay: Cytotoxicity against human SK-MEL-28 cells assessed as cellular growth at 10 uM by SRB assay
SN12C = assay: Cytotoxicity against human SN12C cells assessed as cellular growth at 10 uM by SRB assay
HL-60(TB) = assay: Cytotoxicity against human HL-60(TB) cells assessed as cellular growth at 10 uM by SRB assay
HCT-15 = assay: Cytotoxicity against human HCT15 cells assessed as cellular growth at 10 uM by SRB assay
SK-OV-3 = assay: Cytotoxicity against human SKOV3 cells assessed as cellular growth at 10 uM by SRB assay
NCI-H322M = assay: Cytotoxicity against human NCI-H322M cells assessed as cellular growth at 10 uM by SRB assay
RXF 393 = assay: Cytotoxicity against human RXF393 cells assessed as cellular growth at 10 uM by SRB assay
U-251 = assay: Cytotoxicity against human U251 cells assessed as cellular growth at 10 uM by SRB assay
[1] = Cytotoxicity against human NCI-ADR-RES cells assessed as cellular growth at 10 uM by SRB assay
EKVX = assay: Cytotoxicity against human EKVX cells assessed as cellular growth at 10 uM by SRB assay
MDA-MB-468 = assay: Cytotoxicity against human MDA-MB-468 cells assessed as cellular growth at 10 uM by SRB assay
SNB-19 = assay: Cytotoxicity against human SNB19 cells assessed as cellular growth at 10 uM by SRB assay
PC-3 = assay: Cytotoxicity against human PC3 cells assessed as cellular growth at 10 uM by SRB assay
COLO 205 = assay: Cytotoxicity against human COLO205 cells assessed as cellular growth at 10 uM by SRB assay
HOP-62 = assay: Cytotoxicity against human HOP62 cells assessed as cellular growth at 10 uM by SRB assay
OVCAR-8 = assay: Cytotoxicity against human OVCAR8 cells assessed as cellular growth at 10 uM by SRB assay
NCI-H522 = assay: Cytotoxicity against human NCI-H522 cells assessed as cellular growth at 10 uM by SRB assay
DU-145 = assay: Cytotoxicity against human DU145 cells assessed as cellular growth at 10 uM by SRB assay
NCI-H23 = assay: Cytotoxicity against human NCI-H23 cells assessed as cellular growth at 10 uM by SRB assay
KM12 = assay: Cytotoxicity against human KM12 cells assessed as cellular growth at 10 uM by SRB assay
SK-MEL-5 = assay: Cytotoxicity against human SK-MEL-5 cells assessed as cellular growth at 10 uM by SRB assay
MDA-MB-435 = assay: Cytotoxicity against human MDA-MB-435 cells assessed as cellular growth at 10 uM by SRB assay
786-0 = assay: Cytotoxicity against human 786-0 cells assessed as cellular growth at 10 uM by SRB assay
TK-10 = assay: Cytotoxicity against human TK10 cells assessed as cellular growth at 10 uM by SRB assay
UO-31 = assay: Cytotoxicity against human UO31 cells assessed as cellular growth at 10 uM by SRB assay
CCRF-CEM = assay: Cytotoxicity against human CCRF-CEM cells assessed as cellular growth at 10 uM by SRB assay
IGROV-1 = assay: Cytotoxicity against human IGROV1 cells assessed as cellular growth at 10 uM by SRB assay
A549 = assay: Cytotoxicity against human A549 cells assessed as cellular growth at 10 uM by SRB assay
UACC-62 = assay: Cytotoxicity against human UACC62 cells assessed as cellular growth at 10 uM by SRB assay
BT-549 = assay: Cytotoxicity against human BT549 cells assessed as cellular growth at 10 uM by SRB assay
UACC-257 = assay: Cytotoxicity against human UACC257 cells assessed as cellular growth at 10 uM by SRB assay
RPMI-8226 = assay: Cytotoxicity against human RPMI8226 cells assessed as cellular growth at 10 uM by SRB assay
SF-539 = assay: Cytotoxicity against human SF539 cells assessed as cellular growth at 10 uM by SRB assay
SW-620 = assay: Cytotoxicity against human SW620 cells assessed as cellular growth at 10 uM by SRB assay
NCI-H226 = assay: Cytotoxicity against human NCI-H226 cells assessed as cellular growth at 10 uM by SRB assay
SK-MEL-2 = assay: Cytotoxicity against human SK-MEL-2 cells assessed as cellular growth at 10 uM by SRB assay
NCI-H460 = assay: Cytotoxicity against human NCI-H460 cells assessed as cellular growth at 10 uM by SRB assay
Hs-578T = assay: Cytotoxicity against human Hs578T cells assessed as cellular growth at 10 uM by SRB assay
M14 = assay: Cytotoxicity against human M14 cells assessed as cellular growth at 10 uM by SRB assay
HCT-116 = assay: Cytotoxicity against human HCT116 cells assessed as cellular growth at 10 uM by SRB assay
SF-295 = assay: Cytotoxicity against human SF295 cells assessed as cellular growth at 10 uM by SRB assay
LOX IMVI = assay: Cytotoxicity against human LOXIMVI cells assessed as cellular growth at 10 uM by SRB assay
SNB-75 = assay: Cytotoxicity against human SNB75 cells assessed as cellular growth at 10 uM by SRB assay
MCF7 = assay: Cytotoxicity against human MCF7 cells assessed as cellular growth at 10 uM by SRB assay
T47D = assay: Cytotoxicity against human T47D cells assessed as cellular growth at 10 uM by SRB assay
CAKI-1 = assay: Cytotoxicity against human Caki1 cells assessed as cellular growth at 10 uM by SRB assay

In the case of `CC1(C)CC(=O)c2cc3c(N)c(C(=O)Nc4ccc(Cl)cc4)sc3nc2C1`, the Activity (SF-268) is reported as 124.88%, the Activity (MOLT-4) is reported as 104% and the Activity (SR) is reported as 112.84%. The Activity (HCC 2998) was 116.11%, the Activity (HT-29) was 96.43% and the Activity (MDA-MB-231) was 114.95%. The Activity (Malme-3M) was 119.36%, the Activity (A498) was 75.63% and the Activity (K562) was 107.2%. The Activity (ACHN) was 116.88%, the Activity (OVCAR-3) was 111.21% and the Activity (SK-MEL-28) was 118.07%. It also gave an Activity (SN12C) of 109.62%, an Activity (HL-60(TB)) of 107.32% and an Activity (HCT-15) of 107.55%. For the same compound, the Activity (SK-OV-3) was 106.15%, the Activity (NCI-H322M) was 113.55% and the Activity (RXF 393) was 116.26%. The Activity (U-251) was 103.14%, the Activity [1] was 113.97% and the Activity (EKVX) was 93.17%. For the same compound, the Activity (MDA-MB-468) was 109.5%, the Activity (SNB-19) was 113.58% and the Activity (PC-3) was 104.63%. It also gave an Activity (COLO 205) of 116.82%, an Activity (HOP-62) of 108.35% and an Activity (OVCAR-8) of 110.67%. For the same compound, the Activity (NCI-H522) was 95.83%, the Activity (DU-145) was 103.07% and the Activity (NCI-H23) was 104.98%. The Activity (KM12) was 116.67%, the Activity (SK-MEL-5) was 96.03% and the Activity (MDA-MB-435) was 108.85%. It also gave an Activity (786-0) of 98.68%, an Activity (TK-10) of 95.21% and an Activity (UO-31) of 108.83%. It also gave an Activity (CCRF-CEM) of 97.21%, an Activity (IGROV-1) of 110.85% and an Activity (A549) of 97.61%. It also gave an Activity (UACC-62) of 105.25%, an Activity (BT-549) of 124.84% and an Activity (UACC-257) of 91.35%. It also gave an Activity (RPMI-8226) of 102.77%, an Activity (SF-539) of 114.18% and an Activity (SW-620) of 108.54%. It also gave an Activity (NCI-H226) of 108.39%, an Activity (SK-MEL-2) of 100.96% and an Activity (NCI-H460) of 108.61%. It also gave an Activity (Hs-578T) of 108.83%, an Activity (M14) of 107.38% and an Activity (HCT-116) of 108.43%. The Activity (SF-295) was 100.12%, the Activity (LOX IMVI) was 108.76% and the Activity (SNB-75) was 113.88%. The Activity (MCF7) was 102.6%, the Activity (T47D) was 96.17% and the Activity (CAKI-1) was 134.14%.

For `Cc1cccc(-c2nc(-c3cccs3)no2)c1`, the Activity (SF-268) was 112.75%, the Activity (MOLT-4) was 96.35% and the Activity (SR) was 93.72%. For the same compound, the Activity (HCC 2998) was 80.51%, the Activity (HT-29) was 98.29% and the Activity (MDA-MB-231) was 76.61%. The Activity (Malme-3M) was 112.31%, the Activity (A498) was 82.09% and the Activity (K562) was 94.59%. For the same compound, the Activity (ACHN) was 99.9%, the Activity (OVCAR-3) was 104% and the Activity (SK-MEL-28) was 109.6%. It also gave an Activity (HL-60(TB)) of 96%, an Activity (HCT-15) of 83.75% and an Activity (SK-OV-3) of 94.86%. For the same compound, the Activity (NCI-H322M) was 95.9%, the Activity (RXF 393) was 126.03% and the Activity (U-251) was 82.28%. For the same compound, the Activity [1] was 95.15%, the Activity (EKVX) was 84.59% and the Activity (MDA-MB-468) was 40.25%. The Activity (SNB-19) was 106.75%, the Activity (PC-3) was 80.3% and the Activity (COLO 205) was 111.56%. For the same compound, the Activity (HOP-62) was 79.48%, the Activity (OVCAR-8) was 98.72% and the Activity (NCI-H522) was 90.03%. The Activity (DU-145) was 120%, the Activity (NCI-H23) was 89.36% and the Activity (KM12) was 104.19%. For the same compound, the Activity (SK-MEL-5) was 82.84%, the Activity (MDA-MB-435) was 110.16% and the Activity (786-0) was 93.47%. The Activity (TK-10) was 68.05%, the Activity (UO-31) was 59.19% and the Activity (CCRF-CEM) was 91.12%. The Activity (IGROV-1) was 61.64%, the Activity (A549) was 100.01% and the Activity (UACC-62) was 86.85%. The Activity (BT-549) was 88.13%, the Activity (UACC-257) was 93.98% and the Activity (RPMI-8226) was 92.97%. For the same compound, the Activity (SF-539) was 115.88%, the Activity (SW-620) was 90.68% and the Activity (NCI-H226) was 94.62%. It also gave an Activity (SK-MEL-2) of 100.25%, an Activity (NCI-H460) of 94.9% and an Activity (Hs-578T) of 81.63%. For the same compound, the Activity (M14) was 102.43%, the Activity (HCT-116) was 96.5% and the Activity (SF-295) was 91.28%. It also gave an Activity (LOX IMVI) of 95.98%, an Activity (SNB-75) of 85.75% and an Activity (MCF7) of 39.04%. It also gave an Activity (T47D) of 53.59% and an Activity (CAKI-1) of 77.92%.
